Experimental data reported in patent publication US9815847B2 (Icahn School of Medicine at Mount Sinai, priority 2013, dated 2017).

Assays:
Assay in all cases: Kinase inhibition assay
Format in all cases: biochemical
Details in all cases: 10 μM ATP; 5-dose IC50 mode
[1] = target: T1, PIM2 (Homo sapiens, UniProt Q9P1W9)
T1 construct: purchased Reaction Biology Corporation
Experimental: (§1) Kinase assays were performed at Reaction Biology Corporation. To a freshly prepared buffer solution was added the target kinase at a concentration of […]. The contents were mixed gently, and then compound 8h dissolved in DMSO was added to the reaction mixture in the appropriate concentration. The mixture was incubated at room temperature for 30 min. prior to addition of ATP to initiate the reaction. Compound 8h was tested in a 5-dose IC50 mode with 10-fold serial dilutions starting at 10 μM. For each of the kinases, a control compound in a 10-dose IC50 mode with 3-fold serial dilutions starting at 20 μM. The control compounds were GW5074 (3-(3,5-dibromo-4-hydroxy-benzylidene)-5-iodo-1,3-dihydro-indol-2-one) for BRAF, CK2a and RAF1, D4476 (4-[4-(2,3-dihydro-1,4-benzodioxin-6-yl)-5-(2-pyridinyl)-1H-imidazol-2-yl]benzamide) for CK1d; Wee1 inhibitor (4-(2-chlorophenyl)-9-hydroxypyrrolo[3,4-c]carbazole-1,3-(2H,6H)-dione) for WEE1 and saturosporine for other kinases. Reaction was carried out at 10 μM ATP concentration.

[2] = target: T2, MEK1 (Homo sapiens, UniProt Q02750)
T2 construct: purchased Reaction Biology Corporation
Experimental: as §1

[3] = target: T3, Aurora A (Homo sapiens, UniProt O14965)
T3 construct: purchased Reaction Biology Corporation
Experimental: as §1

[4] = target: T4, JAK3 (Homo sapiens, UniProt P52333)
T4 construct: purchased Reaction Biology Corporation
Experimental: as §1

[5] = target: T5, MEK2 (Homo sapiens, UniProt P36507)
T5 construct: purchased Reaction Biology Corporation
Experimental: as §1

[6] = target: T6, EGFR (Homo sapiens, UniProt P00533)
T6 construct: purchased Reaction Biology Corporation
Experimental: as §1

[7] = target: T7, c-Kit (Homo sapiens, UniProt P10721)
T7 construct: purchased Reaction Biology Corporation
Experimental: as §1

[8] = target: T8, JAK1 (Homo sapiens, UniProt P23458)
T8 construct: purchased Reaction Biology Corporation
Experimental: as §1

[9] = target: T9, CK2a2 (Homo sapiens, UniProt P19784)
T9 construct: purchased Reaction Biology Corporation
Experimental: as §1

[10] = target: T10, AKT1 (Homo sapiens, UniProt P31749)
T10 construct: purchased Reaction Biology Corporation
Experimental: as §1

[11] = target: T11, CHK1 (Homo sapiens, UniProt O14757)
T11 construct: purchased Reaction Biology Corporation
Experimental: as §1

[12] = target: T12, CDK6/cyclin D1 (Homo sapiens, UniProt Q00534)
T12 construct: purchased Reaction Biology Corporation
Experimental: as §1

[13] = target: T13, CDK4/cyclin D1 (Homo sapiens, UniProt P11802)
T13 construct: purchased Reaction Biology Corporation
Experimental: as §1

[14] = target: T14, PIM3 (Homo sapiens, UniProt Q86V86)
T14 construct: purchased Reaction Biology Corporation
Experimental: as §1

[15] = target: T15, RSK4 (Homo sapiens, UniProt Q9UK32)
T15 construct: purchased Reaction Biology Corporation
Experimental: as §1

[16] = target: T16, FLT3 (Homo sapiens, UniProt P36888)
T16 construct: purchased Reaction Biology Corporation
Experimental: as §1

[17] = target: T17, PLK2 (Homo sapiens, UniProt Q9NYY3)
T17 construct: purchased Reaction Biology Corporation
Experimental: as §1

[18] = target: T18, RET (Homo sapiens, UniProt P07949)
T18 construct: purchased Reaction Biology Corporation
Experimental: as §1

[19] = target: T19, PDGFRb (Homo sapiens, UniProt P09619)
T19 construct: purchased Reaction Biology Corporation
Experimental: as §1

[20] = target: T20, CDK5/p25 (Homo sapiens, UniProt Q00535)
T20 construct: purchased Reaction Biology Corporation
Experimental: as §1

[21] = target: T21, PLK1 (Homo sapiens, UniProt P53350)
T21 construct: purchased Reaction Biology Corporation
Experimental: as §1

[22] = target: T22, PIM1 (Homo sapiens, UniProt P11309)
T22 construct: purchased Reaction Biology Corporation
Experimental: as §1

[23] = target: T23, ABL1 (Homo sapiens, UniProt P00519)
T23 construct: purchased Reaction Biology Corporation
Experimental: as §1

[24] = target: T24, FGFR1 (Homo sapiens, UniProt P11362)
T24 construct: purchased Reaction Biology Corporation
Experimental: as §1

[25] = target: T25, Aurora C (Homo sapiens, UniProt Q9UQB9)
T25 construct: purchased Reaction Biology Corporation
Experimental: as §1

[26] = target: T26, CHK2 (Homo sapiens, UniProt O96017)
T26 construct: purchased Reaction Biology Corporation
Experimental: as §1

[27] = target: T27, ARK5/NUAK1 (Homo sapiens, UniProt O60285)
T27 construct: purchased Reaction Biology Corporation
Experimental: as §1

[28] = target: T28, JAK2 (Homo sapiens, UniProt O60674)
T28 construct: purchased Reaction Biology Corporation
Experimental: as §1

[29] = target: T29, c-Src (Homo sapiens, UniProt P12931)
T29 construct: purchased Reaction Biology Corporation
Experimental: as §1

[30] = target: T30, ALK (Homo sapiens, UniProt Q9UM73)
T30 construct: purchased Reaction Biology Corporation
Experimental: as §1

[31] = target: T31, CDK5/p35 (Homo sapiens, UniProt Q00535)
T31 construct: purchased Reaction Biology Corporation
Experimental: as §1

[32] = target: T32, Aurora B (Homo sapiens, UniProt Q96GD4)
T32 construct: purchased Reaction Biology Corporation
Experimental: as §1

[33] = target: T33, CDK2/cyclin A (Homo sapiens, UniProt P24941)
T33 construct: purchased Reaction Biology Corporation
Experimental: as §1

Measured: IC50

T26 sequence (O96017 whole entry): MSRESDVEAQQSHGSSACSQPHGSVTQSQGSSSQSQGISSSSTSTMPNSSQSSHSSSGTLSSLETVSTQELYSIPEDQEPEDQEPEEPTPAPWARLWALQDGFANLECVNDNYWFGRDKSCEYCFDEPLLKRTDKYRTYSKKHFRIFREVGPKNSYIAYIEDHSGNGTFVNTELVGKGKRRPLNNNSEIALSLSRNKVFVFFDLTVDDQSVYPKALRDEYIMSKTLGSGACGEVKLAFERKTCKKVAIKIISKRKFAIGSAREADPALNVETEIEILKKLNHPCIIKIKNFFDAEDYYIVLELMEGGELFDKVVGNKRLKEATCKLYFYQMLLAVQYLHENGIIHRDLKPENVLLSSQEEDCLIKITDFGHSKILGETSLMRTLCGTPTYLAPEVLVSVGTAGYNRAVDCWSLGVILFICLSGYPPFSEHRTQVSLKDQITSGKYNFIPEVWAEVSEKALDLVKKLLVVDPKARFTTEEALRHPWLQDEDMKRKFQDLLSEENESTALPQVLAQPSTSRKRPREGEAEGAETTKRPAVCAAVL
T2 sequence (Q02750 whole entry): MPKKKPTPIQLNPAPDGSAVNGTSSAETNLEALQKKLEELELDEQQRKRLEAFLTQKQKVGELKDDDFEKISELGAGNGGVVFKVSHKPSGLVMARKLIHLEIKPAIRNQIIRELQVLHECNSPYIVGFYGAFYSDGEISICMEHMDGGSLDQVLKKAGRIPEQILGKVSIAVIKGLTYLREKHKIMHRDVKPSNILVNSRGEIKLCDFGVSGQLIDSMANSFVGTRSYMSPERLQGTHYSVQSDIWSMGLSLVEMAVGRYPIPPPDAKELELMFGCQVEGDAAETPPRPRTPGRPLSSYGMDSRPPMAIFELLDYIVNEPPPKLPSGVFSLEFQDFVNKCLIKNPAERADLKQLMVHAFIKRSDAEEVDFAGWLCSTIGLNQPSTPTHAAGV
T31 sequence (Q00535 whole entry): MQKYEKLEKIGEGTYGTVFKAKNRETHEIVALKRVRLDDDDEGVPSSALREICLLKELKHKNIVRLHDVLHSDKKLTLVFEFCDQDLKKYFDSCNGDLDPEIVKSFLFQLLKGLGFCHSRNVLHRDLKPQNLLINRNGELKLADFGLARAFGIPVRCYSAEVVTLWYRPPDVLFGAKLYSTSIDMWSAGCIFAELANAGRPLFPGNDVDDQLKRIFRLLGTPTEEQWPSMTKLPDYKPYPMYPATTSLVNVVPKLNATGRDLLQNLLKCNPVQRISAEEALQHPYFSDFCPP
T31 sequence (Q15078 2-307 partner limits assumed): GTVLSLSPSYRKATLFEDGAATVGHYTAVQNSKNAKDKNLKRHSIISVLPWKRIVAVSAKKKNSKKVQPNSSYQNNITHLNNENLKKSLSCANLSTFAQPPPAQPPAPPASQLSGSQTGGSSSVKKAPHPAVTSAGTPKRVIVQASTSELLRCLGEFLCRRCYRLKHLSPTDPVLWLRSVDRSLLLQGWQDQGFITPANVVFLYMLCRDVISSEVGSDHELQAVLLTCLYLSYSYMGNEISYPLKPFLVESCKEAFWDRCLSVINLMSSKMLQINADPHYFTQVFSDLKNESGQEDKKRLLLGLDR
T20 sequence (Q00535 whole entry): as the sequence (Q00535 whole entry) above
T20 sequence (Q15078 99-307 partner limits assumed): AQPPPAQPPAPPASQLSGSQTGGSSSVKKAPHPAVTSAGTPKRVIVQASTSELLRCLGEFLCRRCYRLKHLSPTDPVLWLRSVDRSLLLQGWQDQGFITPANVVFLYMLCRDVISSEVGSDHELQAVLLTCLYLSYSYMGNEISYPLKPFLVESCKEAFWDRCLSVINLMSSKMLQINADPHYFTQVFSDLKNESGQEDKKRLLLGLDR
T13 sequence (P11802 whole entry): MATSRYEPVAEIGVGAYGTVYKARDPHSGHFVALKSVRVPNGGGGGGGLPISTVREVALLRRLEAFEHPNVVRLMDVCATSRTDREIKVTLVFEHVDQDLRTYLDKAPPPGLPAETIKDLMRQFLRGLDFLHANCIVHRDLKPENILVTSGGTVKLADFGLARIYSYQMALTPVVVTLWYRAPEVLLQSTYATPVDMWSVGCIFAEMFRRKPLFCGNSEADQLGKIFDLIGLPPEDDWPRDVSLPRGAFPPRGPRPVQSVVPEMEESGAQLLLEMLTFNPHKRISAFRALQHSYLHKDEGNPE
T13 sequence (P24385 whole entry partner): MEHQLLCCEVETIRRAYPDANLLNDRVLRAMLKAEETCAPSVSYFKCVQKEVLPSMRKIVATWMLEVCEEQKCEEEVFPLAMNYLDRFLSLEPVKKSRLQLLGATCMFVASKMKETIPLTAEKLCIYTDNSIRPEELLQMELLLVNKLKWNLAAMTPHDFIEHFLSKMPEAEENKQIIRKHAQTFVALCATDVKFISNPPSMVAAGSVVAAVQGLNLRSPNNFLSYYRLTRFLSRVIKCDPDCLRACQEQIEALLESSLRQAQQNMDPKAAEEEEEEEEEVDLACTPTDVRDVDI
T32 sequence (Q96GD4 whole entry): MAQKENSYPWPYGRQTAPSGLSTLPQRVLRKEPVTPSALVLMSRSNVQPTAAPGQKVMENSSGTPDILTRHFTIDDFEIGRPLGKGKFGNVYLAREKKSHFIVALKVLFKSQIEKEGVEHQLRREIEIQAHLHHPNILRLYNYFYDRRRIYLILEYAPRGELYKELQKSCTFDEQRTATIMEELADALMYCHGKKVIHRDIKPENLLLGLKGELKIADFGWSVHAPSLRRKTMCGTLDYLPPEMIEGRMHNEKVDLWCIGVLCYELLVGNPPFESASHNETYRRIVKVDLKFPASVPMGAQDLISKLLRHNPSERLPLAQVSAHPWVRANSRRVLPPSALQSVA
T30 sequence (Q9UM73 19-1620): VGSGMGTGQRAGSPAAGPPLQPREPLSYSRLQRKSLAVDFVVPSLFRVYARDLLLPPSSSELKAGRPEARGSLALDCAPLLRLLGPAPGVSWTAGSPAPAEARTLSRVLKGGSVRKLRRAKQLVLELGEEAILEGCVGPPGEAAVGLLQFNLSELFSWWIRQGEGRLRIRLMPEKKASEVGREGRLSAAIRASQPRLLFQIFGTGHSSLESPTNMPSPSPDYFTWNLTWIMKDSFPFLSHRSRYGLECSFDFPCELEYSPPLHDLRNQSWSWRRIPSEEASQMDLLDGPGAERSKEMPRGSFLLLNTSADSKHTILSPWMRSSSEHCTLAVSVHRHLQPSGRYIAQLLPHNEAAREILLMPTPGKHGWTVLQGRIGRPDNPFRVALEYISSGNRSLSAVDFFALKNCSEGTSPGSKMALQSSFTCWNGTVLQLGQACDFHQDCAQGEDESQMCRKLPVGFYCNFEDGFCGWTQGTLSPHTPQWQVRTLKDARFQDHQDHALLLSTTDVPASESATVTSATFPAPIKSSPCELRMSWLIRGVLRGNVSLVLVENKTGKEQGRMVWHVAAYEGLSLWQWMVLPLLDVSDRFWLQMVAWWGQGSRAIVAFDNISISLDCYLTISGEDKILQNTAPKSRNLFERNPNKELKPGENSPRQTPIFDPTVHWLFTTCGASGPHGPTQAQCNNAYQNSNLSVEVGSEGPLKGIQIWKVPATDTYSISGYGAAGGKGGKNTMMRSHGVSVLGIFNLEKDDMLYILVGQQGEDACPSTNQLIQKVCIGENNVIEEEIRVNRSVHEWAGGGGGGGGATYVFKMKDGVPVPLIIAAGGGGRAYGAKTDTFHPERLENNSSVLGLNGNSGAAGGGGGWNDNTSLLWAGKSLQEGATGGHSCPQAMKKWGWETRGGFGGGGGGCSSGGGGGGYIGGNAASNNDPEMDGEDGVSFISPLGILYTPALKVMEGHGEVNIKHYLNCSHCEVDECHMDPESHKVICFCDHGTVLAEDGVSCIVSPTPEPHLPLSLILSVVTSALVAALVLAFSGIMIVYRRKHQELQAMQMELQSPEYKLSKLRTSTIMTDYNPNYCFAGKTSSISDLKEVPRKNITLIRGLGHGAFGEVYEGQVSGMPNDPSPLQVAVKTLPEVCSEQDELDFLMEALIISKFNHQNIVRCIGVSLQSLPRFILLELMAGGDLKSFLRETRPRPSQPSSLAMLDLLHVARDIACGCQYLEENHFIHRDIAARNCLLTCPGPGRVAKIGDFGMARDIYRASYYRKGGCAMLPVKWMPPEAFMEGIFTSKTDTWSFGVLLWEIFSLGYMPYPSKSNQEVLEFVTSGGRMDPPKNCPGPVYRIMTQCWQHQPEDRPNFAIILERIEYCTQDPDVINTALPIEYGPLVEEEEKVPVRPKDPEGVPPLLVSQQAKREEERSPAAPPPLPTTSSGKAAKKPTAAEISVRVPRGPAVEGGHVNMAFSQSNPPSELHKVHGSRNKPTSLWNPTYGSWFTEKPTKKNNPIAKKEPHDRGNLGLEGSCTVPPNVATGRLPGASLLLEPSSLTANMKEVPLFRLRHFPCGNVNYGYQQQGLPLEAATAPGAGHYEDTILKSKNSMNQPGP

CN1CCN(c2ccc(Nc3ncc(/C=C/C#N)c(NC4CCCC4)n3)cc2)CC1 [Compound 8h, 3-{4-Cyclopentylamino-2-[4-(4-methylpiperazin-1-yl)phenylamino]pyrimidin-5-yl}acrylonitrile]
> 10000 nM: [20] | [31]
> 1000 nM: [1] | [2] | [5] | [10] | [14] | [17] | [22] | [25] | [33]
< 100 nM: [15] | [16] | [18] | [19] | [23] | [24] | [27] | [29] | [30] | [32]
100 to 1000 nM: all other assays above
